Where “and” joins values, the source holds several entries; their conditions need not be identical. Equal entries are not always repeated. Inconclusive results and toxic doses are left out. Rule for the calls: active = survival T/C of 150% or more; inactive = T/C below 125% in these data. Peptide text beside a SMILES is read from it. * marks the point of attachment. For = O=C*
System: P388 leukemia ip, CD2F1 mice, survival T/C
Experiment: NCI In Vivo Anticancer Drug Screen. Data for tumor model P388 Leukemia (intraperitoneal) in CD2F1 (CDF1) mice
Settings: endpoint: median survival time, higher = longer survival
In short: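 Mice carrying the transplanted tumor received test compound or vehicle. Survival was recorded in each group, and the value is the treated-group measurement divided by that of the vehicle-treated control group.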

[1] = dose: 50.0 mg/kg/injection, schedule: Q01DX005 (ip), vehicle: saline with Tween-80
[2] = dose: 100.0 mg/kg/injection, schedule: Q01DX005 (ip), vehicle: saline with Tween-80
[3] = dose: 200.0 mg/kg/injection, schedule: Q01DX005 (ip), vehicle: saline with Tween-80
[4] = dose: 25.0 mg/kg/injection, schedule: Q01DX005 (ip), vehicle: saline
[5] = dose: 50.0 mg/kg/injection, schedule: Q01DX005 (ip), vehicle: saline
[6] = dose: 25.0 mg/kg/injection, schedule: Q01DX009 (ip), vehicle: saline
[7] = dose: 50.0 mg/kg/injection, schedule: Q01DX009 (ip), vehicle: saline
[8] = dose: 100.0 mg/kg/injection, schedule: Q01DX009 (ip), vehicle: Klucel (hydroxypropylcellulose) (HPC)
[9] = dose: 200.0 mg/kg/injection, schedule: Q01DX009 (ip), vehicle: Klucel (hydroxypropylcellulose) (HPC)
[10] = dose: 60.0 mg/kg/injection, schedule: Q01DX005 (ip), vehicle: Klucel (hydroxypropylcellulose) (HPC)
[11] = dose: 120.0 mg/kg/injection, schedule: Q01DX005 (ip), vehicle: Klucel (hydroxypropylcellulose) (HPC)
[12] = dose: 240.0 mg/kg/injection, schedule: Q01DX005 (ip), vehicle: Klucel (hydroxypropylcellulose) (HPC)
[13] = dose: 12.5 mg/kg/injection, schedule: Q01DX009 (ip), vehicle: saline
[14] = dose: 12.5 mg/kg/injection, schedule: Q01DX009 (ip), vehicle: Klucel (hydroxypropylcellulose) (HPC)
[15] = dose: 25.0 mg/kg/injection, schedule: Q01DX009 (ip), vehicle: Klucel (hydroxypropylcellulose) (HPC)
[16] = dose: 50.0 mg/kg/injection, schedule: Q01DX009 (ip), vehicle: Klucel (hydroxypropylcellulose) (HPC)
[17] = dose: 50.0 mg/kg/injection, schedule: Q01DX005 (ip), vehicle: Klucel (hydroxypropylcellulose) (HPC)
[18] = dose: 100.0 mg/kg/injection, schedule: Q01DX005 (ip), vehicle: Klucel (hydroxypropylcellulose) (HPC)
[19] = dose: 200.0 mg/kg/injection, schedule: Q01DX005 (ip), vehicle: Klucel (hydroxypropylcellulose) (HPC)
[20] = dose: 100.0 mg/kg/injection, schedule: Q01DX009 (ip), vehicle: saline
[21] = dose: 200.0 mg/kg/injection, schedule: Q01DX009 (ip), vehicle: saline
[22] = dose: 100.0 mg/kg/injection, schedule: Q01DX009 (ip), vehicle: saline with Tween-80

Measured: T/C

COc1cc2c(cc1OC)[C@H](c1cc(Br)c(O)c(OC)c1)[C@H]1C(=O)OCC1C2 (stereo partly drawn)
inactive: dose: 12.5 mg/kg/injection, schedule: Q01DX005 (ip), vehicle: saline with Tween-80 87 % of control | dose: 25.0 mg/kg/injection, schedule: Q01DX005 (ip), vehicle: saline with Tween-80 92 % of control | [1] 92 % of control | [2] 88 % of control | [3] 89 % of control

CCN(CC)CCCSCCCNc1cc(OC)cc2cccnc12
inactive: dose: 12.5 mg/kg/injection, schedule: Q01DX005 (ip), vehicle: saline 105 % of control | [4] 100 % of control | [5] 99 % of control and 91 % of control

CCC1CCCCN1C (stereo not drawn)
inactive: [4] 103 % of control | [6] 105 % of control | [5] 98 % of control | [7] 110 % of control | dose: 100.0 mg/kg/injection, schedule: Q01DX005 (ip), vehicle: saline 95 % of control

CCCCCCCCCc1ccc(OC(=O)CCC)cc1
inactive: [8] 102 % of control | [9] 97 % of control | dose: 400.0 mg/kg/injection, schedule: Q01DX009 (ip), vehicle: Klucel (hydroxypropylcellulose) (HPC) 99 % of control

COc1ccc(C2c3cc4c(cc3OC(C)(O)C2C)OCO4)cc1 (stereo not drawn)
inactive: [10] 95 % of control | [11] 98 % of control | [12] 93 % of control

COC(=O)C1=C(C(=O)OC)[C]([Hg][CH3])(C(=O)c2ccccc2)N=N1 (stereo not drawn)
inactive: dose: 6.25 mg/kg/injection, schedule: Q01DX009 (ip), vehicle: saline 93 % of control | [13] 103 % of control | [6] 90 % of control

CC(=O)Nc1ccc(Sc2ncc([N+](=O)[O-])s2)cc1
inactive: [14] 100 % of control | [15] 116 % of control | [16] 100 % of control and 108 % of control | [8] 102 % of control

Oc1c(-c2ccccc2)nn(O)c1-c1ccccc1
inactive: [14] 106 % of control | [15] 100 % of control | [16] 95 % of control

Cc1nc2[nH]ncc2c(=O)n1-c1ccccc1Cl
inactive: [17] 101 % of control | [18] 101 % of control | [19] 99 % of control

CN1CCc2c1cc(-c1ccncc1)c1c2N(C)CC1
inactive: [17] 106 % of control | [18] 107 % of control | [19] 107 % of control

COC1C(C(=O)CS(=O)Cc2ccccc2)OC2OC(C)(C)OC21 (stereo not drawn)
inactive: dose: 60.0 mg/kg/injection, schedule: Q01DX005 (ip), vehicle: saline 104 % of control and 98 % of control | dose: 120.0 mg/kg/injection, schedule: Q01DX005 (ip), vehicle: saline 103 % of control | dose: 240.0 mg/kg/injection, schedule: Q01DX005 (ip), vehicle: saline 106 % of control and 108 % of control

COc1cc(C[C@H](CO)[C@H](CO)Cc2ccc3c(c2)OCO3)cc(OC)c1OC
inactive: dose: 12.5 mg/kg/injection, schedule: Q04DX002 (ip), vehicle: acetone 100 % of control | dose: 25.0 mg/kg/injection, schedule: Q04DX002 (ip), vehicle: acetone 102 % of control | dose: 50.0 mg/kg/injection, schedule: Q04DX002 (ip), vehicle: acetone 103 % of control

CC(C)C1(C(C)C)OCCO1
inactive: [7] 100 % of control | [20] 109 % of control | [21] 109 % of control

CSCCC(NC(=O)C(Cc1ccccc1)NC=O)C(=O)O (stereo not drawn) (For-Phe-Met-OH; configuration not given here)
inactive: [1] 108 % of control | [2] 103 % of control | [3] 104 % of control

CCC(=O)NC
inactive: [6] 97 % of control | [7] 97 % of control | [20] 106 % of control | [21] 107 % of control

COC1=Cc2c(O)c3c(c(O)c2C(OC2CC(N)C(O)C(C)O2)C1)C(=O)c1c(OC)cccc1C3=O (stereo not drawn)
inactive: dose: 3.13 mg/kg/injection, schedule: Q04DX003 (ip), vehicle: water 98 % of control | dose: 6.25 mg/kg/injection, schedule: Q04DX003 (ip), vehicle: water 98 % of control | dose: 12.5 mg/kg/injection, schedule: Q04DX003 (ip), vehicle: water 102 % of control | dose: 25.0 mg/kg/injection, schedule: Q04DX003 (ip), vehicle: water 109 % of control | dose: 50.0 mg/kg/injection, schedule: Q04DX003 (ip), vehicle: water 107 % of control

CCNC(=O)OCC1=C(COC(=O)NCC)C2OC1C(C(=O)OC)=C2C(=O)OC
inactive: dose: 3.13 mg/kg/injection, schedule: Q01DX009 (ip), vehicle: distilled water + Tween-80 100 % of control | dose: 6.25 mg/kg/injection, schedule: Q01DX009 (ip), vehicle: distilled water + Tween-80 98 % of control | dose: 12.5 mg/kg/injection, schedule: Q01DX009 (ip), vehicle: distilled water + Tween-80 100 % of control and 87 % of control | dose: 25.0 mg/kg/injection, schedule: Q01DX009 (ip), vehicle: distilled water + Tween-80 109 % of control

O=CNCNC=O
inactive: [7] 95 % of control | [20] 90 % of control | [21] 99 % of control

FC1OC1(F)C12CC3CC(CC(C3)C1)C2 (stereo not drawn)
inactive: [16] 106 % of control | [8] 106 % of control | [9] 105 % of control

C=CCOc1nc(OCC=C)nc(OCC=C)n1
inactive: [22] 97 % of control | dose: 200.0 mg/kg/injection, schedule: Q01DX009 (ip), vehicle: saline with Tween-80 93 % of control

Cc1ccc2cccc(OC(=O)Nc3ccc(Cl)c(Cl)c3)c2n1
inactive: [13] 98 % of control | [6] 103 % of control | dose: 50.0 mg/kg/injection, schedule: Q01DX009 (ip), vehicle: saline with Tween-80 91 % of control | [7] 103 % of control | [22] 105 % of control

CCC(=O)c1ccc(Oc2c3ccccc3nc3ccccc23)cc1
inactive: [1] 108 % of control | [2] 117 % of control | [3] 110 % of control

COc1cccc2c1C(=O)c1c(O)c3c(c(O)c1C2=O)CC(O)(C(=O)COc1ccccc1)CC3OC1CC(NC(=O)C(F)(F)F)C(O)C(C)O1 (stereo not drawn)
inactive: dose: 1.56 mg/kg/injection, schedule: Q01DX009 (ip), vehicle: other 98 % of control and 102 % of control | dose: 3.13 mg/kg/injection, schedule: Q01DX009 (ip), vehicle: other 102 % of control and 110 % of control | dose: 12.5 mg/kg/injection, schedule: Q01DX009 (ip), vehicle: other 105 % of control | dose: 25.0 mg/kg/injection, schedule: Q01DX009 (ip), vehicle: other 114 % of control

CC(=O)Nc1c(Br)cc(C)cc1Br
inactive: [16] 94 % of control | [8] 102 % of control | [9] 100 % of control

CC1(Cl)C(c2ccccc2)=[N+]([O-])[N+]([O-])=C1c1ccccc1
inactive: dose: 100.0 mg/kg/injection, schedule: Q04DX002 (ip), vehicle: saline with Tween-80 112 % of control | dose: 200.0 mg/kg/injection, schedule: Q04DX002 (ip), vehicle: saline with Tween-80 112 % of control

CCNS(=O)(=O)c1ccc2c(c1)nc(SC)n2CC
inactive: [10] 104 % of control | [11] 105 % of control | [12] 104 % of control
